Like-named read-outs stand apart in the source and are kept apart here.
Key:
α7 nAChR = tested on: α7 nAChR; parameters: method as in PMID 25775422; settings: cited from earlier work; for EC50: read-out: EC50 / potency for α7 nAChR
human α7 nAChR = target: T1, human α7 nAChR (Homo sapiens, UniProt P36544); test: Calcium fluorescence assay on α7 nAChR expressed in Neuro2a cells, in the presence of PNU120596; assay type: cell-based; settings: for EC50: human α7 nAChR in Neuro2a cells, PNU120596 10 μM present
T1 construct: expressed in transfected cells; host or cells: mouse neuroblastoma Neuro2a, transient co-transfection with Ric-3 (Ric3-pCMV6-XL5, OriGene) and the calcium sensor Case12
T1 sequence (P36544 23-502): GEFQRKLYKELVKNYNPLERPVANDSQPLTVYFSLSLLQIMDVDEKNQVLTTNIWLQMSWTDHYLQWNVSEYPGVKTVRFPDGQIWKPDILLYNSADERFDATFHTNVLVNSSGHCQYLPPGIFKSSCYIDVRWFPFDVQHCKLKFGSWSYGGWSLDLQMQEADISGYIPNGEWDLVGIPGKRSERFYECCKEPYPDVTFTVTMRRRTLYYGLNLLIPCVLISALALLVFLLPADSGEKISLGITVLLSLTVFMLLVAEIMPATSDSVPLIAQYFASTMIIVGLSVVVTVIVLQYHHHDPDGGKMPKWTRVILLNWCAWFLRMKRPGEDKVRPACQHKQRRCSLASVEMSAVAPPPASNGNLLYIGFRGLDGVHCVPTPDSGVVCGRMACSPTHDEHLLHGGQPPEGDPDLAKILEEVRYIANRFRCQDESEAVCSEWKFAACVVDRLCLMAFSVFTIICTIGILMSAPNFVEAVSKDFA
Description: A panel of the synthesized compounds was tested to determine their activity on α7 nAChR by fluorescence detection of cytoplasmic calcium rise (Figure 2a).
Mouse neuroblastoma Neuro2a cells were purchased from the Russian collection of cell cultures (Institute of Cytology, Russian Academy of Sciences, Saint Petersburg, Russia). Cells were cultured in Dulbecco’s modified Eagle’s essential medium (Paneco, Moscow, Russia) supplemented with 10% fetal bovine serum (Sigma, St. Louis, MO, USA). The cells one day before transfection were subcultured and plated at a density of 10,000 cells per well on a 96-well plate. The next day, Neuro2a cells were transiently transfected with plasmids coding α7 nAChR (human α7 nAChR-pCEP4) or its mutants, the chaperone Ric-3 (Ric3-pCMV6-XL5, OriGene, USA) and a fluorescent calcium sensor Case12 (pCase12-cyto vector, Evrogen, Russia) in molar ratio 4:1:1. Lipofectamine transfection protocol (Invitrogen, Waltham, MA, USA) was performed as recommended by the manufacturer. Transfected cells were grown at 37 °C in a CO2 incubator for 48 h.
Calcium […] assay was performed as described previously. Briefly, Transfected Neuro2a cells were grown on black 96-well plates (Corning, Somerville, MA, USA) at 37 °C in a CO2 incubator for 72 h, then growth medium was substituted with buffer containing 140 mM NaCl, 2 mM CaCl2, 2.8 mM KCl, 4 mM MgCl2, 20 mM HEPES, 10 mM glucose; pH 7.4.
Cells were incubated with the α7 nAChR positive allosteric modulator PNU120596 (10 μM, Tocris, Bristol, UK) for 20 min at room temperature before the addition of tested compounds. Plates were measured in microplate reader Hidex Sence (Hidex, Turku, Finland) using excitation at 485 nm and emission at 535 ± 10 nm. Fluorescence peak intensity in each well was expressed as a percentage of the maximal obtained response. Data files were analysed using Hidex Sence software (Hidex, Turku, Finland). Controls were run in the presence of 4 μM α-cobratoxin.
The R statistical programming environment “https://www.r-project.org/” (accessed on 16 June 2023) was used to analyze the results. Base R graphics and ggplot2 [54] graphical library were used for the data visualisation. Dose-response curves were fitted using “nlm” function and the following equation: response ~ (100/1 + (EC50/x)^n), where x denotes base 10 logarithm of ligand concentration in moles per liter (normalized to 1M) and n is the Hill coefficient. Libraries “rgl” “https://CRAN.R-project.org/package=rgl” (accessed on 16 May 2023) and “barplot3d” “https://cran.r-project.org/src/contrib/Archive/barplot3d/” (accessed on 16 May 2023) were used to generate the 3D bar chart shown on Figure 2b.
Figure 2 In vitro activity determination of the synthesized compounds. […] The receptor activation was detected as an increase in fluorescent signal in cell cytoplasm by fluorescence microscopy or as total fluorescence of the well in 96-well plate reader setup. Normalized fluorescence amplitude was plotted against base 10 logarithm of mole per liter concentration of the tested agonist and EC50 values were than calculated using dose-response equation. […] Substitutions in the 6th position of the indole ring (designated as X) were halogens (green shadow), hydrogen bond acceptors (yellow shadow) or hydrogen bond donors (blue shadow). Carboxy group modifications were comprised by free acid (Q = OH), ethers (Q = OCH3, OC2H5), and amides (Q = NH2, NHCH3).

[1] = target: T2, human α3-containing nAChRs (Homo sapiens, UniProt P32297); test: Calcium imaging of α3-containing nAChRs in SH-SY5Y cells (nicotine-induced calcium rise); assay type: cell-based; settings: for agonism on α3* nAChR (calcium response): compound alone
T2 construct: endogenous in cells; host or cells: human neuroblastoma SH-SY5Y
T2 sequence (P32297 32-505): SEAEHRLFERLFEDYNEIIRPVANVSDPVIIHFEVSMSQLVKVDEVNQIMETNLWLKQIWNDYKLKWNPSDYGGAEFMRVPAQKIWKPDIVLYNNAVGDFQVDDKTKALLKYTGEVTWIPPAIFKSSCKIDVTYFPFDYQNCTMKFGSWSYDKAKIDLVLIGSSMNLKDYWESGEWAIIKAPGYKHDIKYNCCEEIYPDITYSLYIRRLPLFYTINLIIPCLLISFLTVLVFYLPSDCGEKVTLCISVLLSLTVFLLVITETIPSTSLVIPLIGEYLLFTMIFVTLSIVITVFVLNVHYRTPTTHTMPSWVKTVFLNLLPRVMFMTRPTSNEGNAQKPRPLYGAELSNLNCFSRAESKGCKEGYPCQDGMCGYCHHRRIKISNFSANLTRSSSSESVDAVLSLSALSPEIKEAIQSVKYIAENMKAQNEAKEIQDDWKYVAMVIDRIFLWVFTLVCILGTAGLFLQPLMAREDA
Description: Two of the studied compounds with high and medium agonist potency for α7 nAChR (6CF and 6ID, Table 1) were tested for activity toward α3* nAChR by calcium imaging.
Normalized data are presented as mean ± standard error. n = 6–7.

[2] = tested on: CD11c expression on macrophages; test: Flow cytometry of macrophage membrane protein CD11c; assay type: cell-based, human; settings: 48 h
Description: (§1) The selective agonist PNU 282,987 increased CD11b and CD11c protein expression by an average of 10% and 26%, respectively (Figure 4a,b).
(§2) Peripheral blood mononuclear cells (PBMCs) were separated by Ficoll-Paque PLUS density gradient centrifugation. PBMCs were placed in a sterile Petri dish and incubated at 37 °C for 2 h. Unattached cells were then removed by washing with PBS and substituted with fresh complete RPMI 1640 medium. To generate monocyte-derived macrophages (MDMs), 50 ng/mL GM-CSF was added to the isolated monocytes and cultured for 6 days to differentiate them into non-polarized MDMs.
(§3) Figure 4 The effects of PNU 282987, hypaphorine, and D-6-iodohypaphorine methyl ester (6ID) on macrophage membrane proteins expression. Cells were treated with these compounds for 48 h and then analyzed by flow cytometry. PNU 282,987 led to an increase in the (a) CD11b and (b) CD11c expression. (c): All tested compounds led to a decrease in TLR4 expression. (d): Macrophages stimulation with hypaphorine and 6ID promoted an increase in CD86 expression. Results obtained in three independent experiments on macrophages from different donors and presented as mean ± SD. One-way ANOVA tests with Tukey post hoc test: * p ˂0.05, ** p ˂ 0.01, **** p < 0.0001 in comparison with untreated cells.

[3] = tested on: TLR4 expression on macrophages; test: Flow cytometry of TLR4 receptor on macrophages; assay type: cell-based, human; settings: 48 h incubation
Description: (§4) The effect of the above-listed compounds on the expression of the TLR4 receptor and the CD86 protein was studied by flow cytometry after 48 h incubation with macrophages. The interaction of bacterial endotoxins with the TLR4 receptor is known to activate the expression of several pro-inflammatory cytokine genes, while the co-stimulatory molecule CD86 plays an important role in […] inflammatory responses. A decrease in the expression of the TLR4 receptor was observed under the action of all tested compounds (Figure 4c,e), the rank order of these TLR4-suppressing effects was as follows: hypaphorine (14%) < PNU 282,987 (21%) < 6ID (31%).
as §2, §3

[4] = tested on: CD86 expression on macrophages; test: Flow cytometry of CD86 protein on macrophages; assay type: cell-based, human; settings: 48 h incubation
Description: as §4, §2, §3

STAT3 phosphorylation = STAT3 phosphorylation in LPS-stimulated macrophages (flow cytometry); assay type: cell-based, human; settings: compound 1 h, then LPS 3 h; control MFI 49
Description: To gain an insight into the signaling induced by the tested compounds, ERK1/2 and STAT3 phosphorylation was checked. Macrophages were treated with tested compounds for 1 h, after which they were stimulated with LPS for 3 h.
as §2
Figure 5 Effects of the analyzed compounds on signaling pathways in LPS-stimulated macrophages. Cells were treated with PNU 282987, hypaphorine, or 6-iodohypaphorine methyl ester (6ID) for 1 h and then stimulated with LPS for 3 h. Phosphorylated ERK1/2 and STAT3 were quantified by flow cytometry with specific antibodies. […] (c): Representative histogram showing the increase in ERK 1/2 phosphorylation in comparison to control. The numbers in the histograms show the MFI ± SD (n = 3). MFI—geometrical mean fluorescence intensity. One-way ANOVA tests with Tukey post hoc test: * p ˂ 0.05, ** p ˂ 0.01, *** p < 0.001 in comparison with untreated cells. TEXT PRINTED IN THE PICTURE: (c) Control: PE-ERK 1/2 Phospho: 193.7±1.5 | (c) PNU 282987: PE-ERK 1/2 Phospho: 251.3±13.7 | (c) Hy: PE-ERK 1/2 Phospho: 246.0±15.7 | (c) 6ID: PE-ERK 1/2 Phospho: 273.7±8.1 DOUBTS OF THE COPYIST ABOUT THIS PICTURE: Panel c: no measure or unit is printed beside the numbers; the x-axis label "PE-ERK 1/2 Phospho" is used as the measure / "Control" is the untreated reference rather than a substance; it is included because a value is printed with it

[5] = tested on: CD11b expression on macrophages; test: Flow cytometry of macrophage membrane protein CD11b; assay type: cell-based, human; settings: 48 h
Description: as §1, §2, §3

C[N+](C)(C)[C@@H](Cc1c[nH]c2cc(Br)ccc12)C(=O)[O-] [6-bromohypaphorine]
α7 nAChR agonistic activity (α7 nAChR; as previously reported): agonistic activity in high micromolar concentrations

C[N+](C)(C)C(Cc1c[nH]c2cc([N+](=O)[O-])ccc12)C(=O)[O-] (stereo not shown) [Compound 14, 6-nitrohypaphorine]
α7 nAChR agonistic activity (human α7 nAChR; at concentrations up to 1 mM, PNU 120,596 present): does not show any agonistic activity
EC50 (human α7 nAChR): no agonistic activity

COC(=O)[C@@H](Cc1c[nH]c2cc(C(F)(F)F)ccc12)[N+](C)(C)C [Compound 15, (D)-6-trifluoromethylhypaphorine methyl ester]
agonism on α3* nAChR (calcium response) ([1]; listed as 6CF): Neither 6ID, which was most active agonist of α7 nAChR, nor 6CF showed detectable agonism on α3* nAChR at concentrations up to 30 µM
agonism on α3* nAChR (calcium response) ([1]; listed as 6CF3): does not evoke noticeable calcium response in concentrations 10, 1, and 0.1 μM
IC50 ([1]; inhibition of nicotine (100 μM)-induced calcium rise): 2400 ± 1200 nM
EC50 (human α7 nAChR; read-out: EC50): 5.14 µM

O=C(N[C@H]1CN2CCC1CC2)c1ccc(Cl)cc1 [PNU 282,987]
increase in CD11c protein expression [2]: 26%
decrease in the expression of the TLR4 receptor [3]: 21%
increase in the expression of CD86 [4]: no effect
STAT3 phosphorylation, MFI (STAT3 phosphorylation): increase in the phosphorylation
increase in CD11b protein expression [5]: 10%

COC(=O)[C@H](Cc1c[nH]c2ccccc12)[N+](C)(C)C [Compound 4, methyl ester of L-hypaphorine]
increase in the expression of CD86 [4]: 26%
EC50 (human α7 nAChR; read-out: EC50): 27 µM
